The test addresses human orexin 2 receptor (Homo sapiens (Human), UniProt O43614). In words: Human orexin 2 receptor Ca2+ mobilization assay (FLIPR, PFSK cells, orexin B 100 nM). To be noted: modified Cheng-Prusoff correction, read-out: OR 2 Kb. The format is cell-based. In general terms: Calcium assays in cells follow changes in intracellular calcium, usually with a dye or a luminescent sensor.

Sequence of human orexin 2 receptor (O43614 whole entry): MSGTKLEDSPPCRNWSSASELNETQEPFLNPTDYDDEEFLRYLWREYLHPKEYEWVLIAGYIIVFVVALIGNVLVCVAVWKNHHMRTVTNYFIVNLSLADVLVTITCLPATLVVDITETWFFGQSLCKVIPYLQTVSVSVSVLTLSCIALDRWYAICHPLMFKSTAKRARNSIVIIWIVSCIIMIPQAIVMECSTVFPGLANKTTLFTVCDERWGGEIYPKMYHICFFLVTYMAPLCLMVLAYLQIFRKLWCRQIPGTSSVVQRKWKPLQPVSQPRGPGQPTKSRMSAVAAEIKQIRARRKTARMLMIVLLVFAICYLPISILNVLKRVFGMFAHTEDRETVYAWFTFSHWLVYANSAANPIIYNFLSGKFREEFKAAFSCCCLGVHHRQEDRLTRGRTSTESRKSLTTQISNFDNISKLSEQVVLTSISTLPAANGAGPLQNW

On to `Cc1noc(-c2ccccc2C(=O)N2CC3CN(c4nc(C)c(C)c(C)n4)CC3C2)n1` (stereo not drawn) [Example 309, 2-{[2-(3-Methyl-1,2,4-oxadiazol-5-yl)phenyl]carbonyl}-5-(4,5,6-trimethylpyrimidin-2-yl)octahydropyrrolo[3,4-c]pyrrole], for which the Kb amounted to 6 nM. For the molecule `Cc1noc(-c2ccccc2C(=O)N2CC3CN(c4ncc(F)c(C)n4)CC3C2)n1` (stereo not drawn) [Example 310, 2-(5-Fluoro-4-methylpyrimidin-2-yl)-5-{[2-(3-methyl-1,2,4-oxadiazol-5-yl)phenyl]carbonyl}octahydropyrrolo[3,4-c]pyrrole], the Kb was found to be 15 nM.

Turning to `Cc1nc(N2CC3CN(C(=O)c4ccccc4-c4ncn(C)n4)CC3C2)nc(C)c1C` (stereo not drawn) [Example 311, 2-{[2-(1-Methyl-1H-1,2,4-triazol-3-yl)phenyl]carbonyl}-5-(4,5,6-trimethylpyrimidin-2-yl)octahydropyrrolo[3,4-c]pyrrole], the Kb came to 3 nM. As for `Cc1nc(N2CC3CN(C(=O)c4ccccc4-c4ncn(C)n4)CC3C2)ncc1F` (stereo not drawn) [Example 312, 2-(5-Fluoro-4-methylpyrimidin-2-yl)-5-{[2-(1-methyl-1H-1,2,4-triazol-3-yl)phenyl]carbonyl}octahydropyrrolo[3,4-c]pyrrole], the Kb came to 11 nM.

Turning to `Cc1cc(C)nc(N2CC3CN(C(=O)c4c(F)cccc4-c4nc(C)no4)CC3C2)n1` (stereo not drawn) [Example 315, 2-(4,6-Dimethylpyrimidin-2-yl)-5-{[2-fluoro-6-(3-methyl-1,2,4-oxadiazol-5-yl)phenyl]carbonyl}octahydropyrrolo[3,4-c]pyrrole], the Kb stood at 10 nM. As for `Cc1noc(-c2ccccc2C(=O)N2CC3CN(c4nc(C)c(Cl)c(C)n4)CC3C2)n1` (stereo not drawn) [Example 318, 2-(5-Chloro-4,6-dimethylpyrimidin-2-yl)-5-{[2-(3-methyl-1,2,4-oxadiazol-5-yl)phenyl]carbonyl}octahydropyrrolo[3,4-c]pyrrole], the Kb amounted to 3 nM. Turning to `Cc1noc(-c2ccccc2C(=O)N2CC3CN(c4nc(C)c5c(n4)CCC5)CC3C2)n1` (stereo not drawn) [Example 319, 4-Methyl-2-[5-{[2-(3-methyl-1,2,4-oxadiazol-5-yl)phenyl]carbonyl}hexahydropyrrolo[3,4-c]pyrrol-2(1H)-yl]-6,7-dihydro-5H-cyclopenta[d]pyrimidine], the Kb was 7 nM. Turning to `Cc1nc(N2CC3CN(C(=O)c4ccccc4-c4ncn(C)n4)CC3C2)nc(C)c1Cl` (stereo not drawn) [Example 320, 2-(5-Chloro-4,6-dimethylpyrimidin-2-yl)-5-{[2-(1-methyl-1H-1,2,4-triazol-3-yl)phenyl]carbonyl}octahydropyrrolo[3,4-c]pyrrole], the Kb turned out to be 2 nM. With `Cc1nc(N2CC3CN(C(=O)c4ccccc4-c4ncn(C)n4)CC3C2)ncc1Cl` (stereo not drawn) [Example 321, 2-(5-Chloro-4-methylpyrimidin-2-yl)-5-{[2-(1-methyl-1H-1,2,4-triazol-3-yl)phenyl]carbonyl}octahydropyrrolo[3,4-c]pyrrole], the Kb was determined as 10 nM. The value for `CCc1c(C)nc(N2CC3CN(C(=O)c4ccccc4-c4ncn(C)n4)CC3C2)nc1C` (stereo not drawn) [Example 322, 2-(5-Ethyl-4,6-dimethylpyrimidin-2-yl)-5-{[2-(1-methyl-1H-1,2,4-triazol-3-yl)phenyl]carbonyl}octahydropyrrolo[3,4-c]pyrrole] was 5 nM; that for `Cc1nc(N2CC3CN(C(=O)c4ncccc4-n4nccn4)CC3C2)nc(C)c1C` (stereo not drawn) [Example 323, 2-{[3-(2H-1,2,3-Triazol-2-yl)pyridin-2-yl]carbonyl}-5-(4,5,6-trimethylpyrimidin-2-yl)octahydropyrrolo[3,4-c]pyrrole] was 4 nM; that for `Cc1nc(N2CC3CN(C(=O)c4ncccc4-n4nccn4)CC3C2)nc(C)c1F` (stereo not drawn) [Example 325, 2-(5-Fluoro-4,6-dimethylpyrimidin-2-yl)-5-{[3-(2H-1,2,3-triazol-2-yl)pyridin-2-yl]carbonyl}octahydropyrrolo[3,4-c]pyrrole] was 2 nM.

The values above are taken from patent US9586962B2, “Disubstituted octahydropyrrolo [3,4-C] pyrroles as orexin receptor modulators” (Janssen Pharmaceutica NV, priority 2011, dated 2017).
